Experimental data as given in US7378401B2, “Use of Fosfluridine Tidoxil (FT) for the treatment of intraepithelial proliferative diseases” (Heidelberg Pharma GmbH, priority 2006, dated 2008).
Entries after “also recorded” stand apart in the source; their conditions may differ. Like-named read-outs stand apart in the source and are kept apart here.

Legend:
[1] = after intravenous administration; cited from earlier work
[2] = oral administration, mice
[3] = test system: primary human keratinocytes
[4] = man
[5] = in vivo
Text: One of the drawbacks of using intravenously administered 5-Fluorouracil is bone marrow suppression, expressed clinically by increased susceptibility to infections and fatigue.

SCLC xenograft = details: mice, dose-dependent, maximum inhibition
CFU-E and CFU-GM = details: doses manifold higher than highly toxic doses of FUrd
bone marrow cells = assay: bone marrow toxicity after intravenous doses; assay type: in vivo; details: single and repeated intravenous doses
[6] = oral administration, rhesus monkeys
actinic keratosis = assay: oral Fosfluridine Tidoxil in patients with advanced actinic keratosis; assay type: in vivo, human
Experimental: A person was suffering from an advanced actinic keratosis since more than 3 years. In this time they received different types of topical treatment, such as Solaraze (3% Diclofenac) or Aldara (Imiquimod). Thereafter they were treated with 50 mg of Fosfluridine Tidoxil (1 capsule). The patient received 3 cycles each cycle consisting of a once daily oral administration over 7 days followed by a treatment free week (two weeks per cycle).
A patient was diagnosed to have an actinic keratosis 15 years before and was now in an advanced stage. In the years before taking Fosfluridine Tidoxil they were, in essence, treated with Solaraze. Since the therapeutic benefit appears to be limited they then received 100 mg of oral Fosfluridine Tidoxil (2 capsules of 50 mg) over 3 cycles (as mentioned above).
A person with a first diagnosis of Actinic keratosis 1.6 years before use of Fosfluridine Tidoxil was treated topically, however, eventually without therapeutic benefit. […] They then received 100 mg of oral Fosfluridine Tidoxil (2 capsules of 50 mg) over 3 cycles (as described above). […] This patient was not treated over the next four months with any topical.
A patient suffered from Actinic keratosis for more than 7 years and was now in an advanced stage. […] […], then, received 100 mg of oral Fosfluridine Tidoxil (2 capsules of 50 mg) over 3 cycles (as de-scribed above). […] In the next 2 month this patient was not treated with any topical.

[7] = mice, up to highest single p.o. dose tested of 3.8 g/kg

Row | Structure (SMILES) | drug eliminated within the first hour [1] | plasma half-life [2] [h] | effectiveness in proliferating compared to non-proliferating keratinocytes [3] | plasma concentrations of 5-FU and 5-FUrd after administration of FT [4] | plasma half-life ([4]; oral administration) [h] | distribution to the bone marrow [5] | inhibition of SCLC xenograft tumor growth (SCLC xenograft) | suppression of in vitro colony formation of CFU-E and CFU-GM (CFU-E and CFU-GM) | bone marrow toxicity (bone marrow cells) | plasma half-life [6] [h] | reduction of lesion count (actinic keratosis; 50 mg oral once daily, 3 cycles (7 days on, 7 days off), plus one month of observation) [%] | histological stage of lesions (actinic keratosis; 50 mg oral once daily, 3 cycles, plus one month of observation, most severe area) | histological stage of lesions (actinic keratosis; 100 mg oral once daily, 3 cycles, plus one month of observation, listed as Fosfluridine Tidoxil) | outcome in follow-up without any topical treatment (actinic keratosis; after 100 mg oral, 3 cycles, next 2-4 months without topical, listed as Fosfluridine Tidoxil) | mortality in acute tolerability study [7]
1 | O=c1[nH]cc(F)c(=O)[nH]1 [Example 5-FU, 5-Fluorouracil] | Over 90% | – | – | – | – | – | – | – | – | – | – | – | – | – | –
2 | CCCCCCCCCCCCSCC(COP(=O)([O-])OCC1OC(n2cc(F)c(=O)[nH]c2=O)C(O)C1O)OCCCCCCCCCC.[Na+] (stereo not shown) [FT, (5-fluorouridine)-5′-phosphoric acid (3-dodecylmercapto-2-decyloxy)propylester, Na-salt] | – | 4 to 5 | far more effective in proliferating primary human keratinocytes | negligible | > 20 | not distributed to the bone marrow | up to 82% | did not suppress | did not result in bone marrow toxicity | 8 to 10 | 34 | reduced from stage 3 to stage 1 | decreased from class 2 to class 1; also recorded: reduced from class 3 to class 2; also recorded: reduced from 3 to 1 | all actinic keratoses have disappeared; also recorded: all actinic lesions have disappeared | no animal died
3 | O=c1[nH]c(=O)n([C@@H]2O[C@H](CO)[C@@H](O)[C@H]2O)cc1F [Example 5-FUrd, 5-Fluorouridine, reference compound] | – | – | – | – | – | – | – | – | dose-dependently suppressed bone marrow cells | – | – | – | – | – | –
